Patent US20240002391A1, “4-ALKOXYPYRROLO[2,1-F][1,2,4]TRIAZINES AND PREPARATION AND USES THEREOF” (BioSplice Therapeutics, Inc., priority 2022, published 2024)

molecular target: recombinant DYRK1A kinase (Homo sapiens (Human), UniProt Q13627); assay: DYRK1A kinase assay (Ser/Thr 18 peptide Z-lyte FRET); type: biochemical; settings: DYRK1A kinase activity, Z-lyte Ser/Thr 18 peptide, 15 μM ATP; method text calls the value IC50; read-out: EC50 (the source's name)
Summary of the method: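 Z-lyte FRET read-out: coumarin (Em 455) over fluorescein (Em 520) emission ratio, converted to percent phosphorylation after 1 h development. Reaction: 0.25 μg/mL kinase, 15 μM ATP, 4 μM peptide, 1 h RT with compound, duplicate wells. IC50s fitted by non-linear regression.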

| SMILES | IC50 [nM] |
| --- | --- |
| COc1nc(N[C@H]2C[C@](C)(NC(C)=O)C2)nn2ccc(-c3cc(F)c4nc(C)n(CC(F)F)c4c3)c12 [Compound 149, N-((1r,3r)-3-((5-(1-(2,2-Difluoroethyl)-4-fluoro-2-methyl-1H-benzo[d]imidazol-6-yl)-4-methoxypyrrolo[2,1-f][1,2,4]triazin-2-yl)amino)-1-methylcyclobutyl)acetamide] | 1.5 |
| COc1nc(N[C@H]2CC[C@](C)(O)CC2)nn2ccc(-c3cc(F)c4nc(C)n(CC(F)F)c4c3)c12 [Compound 151, trans-4-((5-(1-(2,2-difluoroethyl)-4-fluoro-2-methyl-1H-benzo[d]imidazol-6-yl)-4-methoxypyrrolo[2,1-f][1,2,4]triazin-2-yl)amino)-1-methylcyclohexan-1-ol] | 1.7 |
| COc1nc(N[C@@H]2CCN(C3COC3)C[C@H]2F)nn2ccc(-c3cc(F)c4nc(C)n(CC(F)F)c4c3)c12 [Compound 159, 5-(1-(2,2-Difluoroethyl)-4-fluoro-2-methyl-1H-benzo[d]imidazol-6-yl)-N-((3R,4R)-3-fluoro-1-(oxetan-3-yl)piperidin-4-yl)-4-methoxypyrrolo[2,1-f][1,2,4]triazin-2-amine] | 2.9 |
| COc1nc(N[C@H]2CCN(C3COC3)C[C@H]2F)nn2ccc(-c3cc(F)c4nc(C)n(CC(F)F)c4c3)c12 [Compound 161, 5-(1-(2,2-Difluoroethyl)-4-fluoro-2-methyl-1H-benzo[d]imidazol-6-yl)-N-((3R,4S)-3-fluoro-1-(oxetan-3-yl)piperidin-4-yl)-4-methoxypyrrolo[2,1-f][1,2,4]triazin-2-amine] | 3 |
| COc1nc(N[C@@H]2CCN(C3COC3)CC2(F)F)nn2ccc(-c3cc(F)c4nc(C)n(CC(F)F)c4c3)c12 [Compound 164, (R)—N-(3,3-Difluoro-1-(oxetan-3-yl)piperidin-4-yl)-5-(1-(2,2-difluoroethyl)-4-fluoro-2-methyl-1H-benzo[d]imidazol-6-yl)-4-methoxypyrrolo[2,1-f][1,2,4]triazin-2-amine] | 2.1 |
| COc1nc(N[C@H]2CC[C@](C)(O)CC2)nn2ccc(-c3cc(F)c4nc(C)n(C(C)C)c4c3)c12 [Compound 168, trans-4-((5-(4-Fluoro-1-isopropyl-2-methyl-1H-benzo[d]imidazol-6-yl)-4-methoxypyrrolo[2,1-f][1,2,4]triazin-2-yl)amino)-1-methylcyclohexan-1-ol] | 2.7 |
| COc1nc(N[C@H]2C[C@@](C)(O)C2)nn2ccc(-c3ccc4nc(C)n(CCO)c4c3)c12 [Compound 169, cis-3-((5-(1-(2-Hydroxyethyl)-2-methyl-1H-benzo[d]imidazol-6-yl)-4-methoxypyrrolo[2,1-f][1,2,4]triazin-2-yl)amino)-1-methylcyclobutan-1-ol] | 2.1 |
| COc1nc(N[C@H]2C[C@](C)(O)C2)nn2ccc(-c3ccc4nc(C)n(CCO)c4c3)c12 [Compound 170, trans-3-((5-(1-(2-Hydroxyethyl)-2-methyl-1H-benzo[d]imidazol-6-yl)-4-methoxypyrrolo[2,1-f][1,2,4]triazin-2-yl)amino)-1-methylcyclobutan-1-ol] | 8.6 |
| COc1nc(N[C@H]2C[C@](C)(NC(C)=O)C2)nn2ccc(-c3ccc4nc(C)n(CCO)c4c3)c12 [Compound 171, N-(trans-3-((5-(1-(2-Hydroxyethyl)-2-methyl-1H-benzo[d]imidazol-6-yl)-4-methoxypyrrolo[2,1-f][1,2,4]triazin-2-yl)amino)-1-methylcyclobutyl)acetamide] | 2.9 |
| COc1nc(N[C@H]2CC[C@](C)(O)CC2)nn2ccc(-c3ccc4nc(C)n(CCO)c4c3)c12 [Compound 172, trans-4-((5-(1-(2-Hydroxyethyl)-2-methyl-1H-benzo[d]imidazol-6-yl)-4-methoxypyrrolo[2,1-f][1,2,4]triazin-2-yl)amino)-1-methylcyclohexan-1-ol] | 2.5 |
| COc1nc(NC2CCC3(CC2)CN(C(C)=O)C3)nn2ccc(-c3ccc4nc(C)n(CCO)c4c3)c12 [Compound 173, 1-(7-((5-(1-(2-hydroxyethyl)-2-methyl-1H-benzo[d]imidazol-6-yl)-4-methoxypyrrolo[2,1-f][1,2,4]triazin-2-yl)amino)-2-azaspiro[3.5]nonan-2-yl)ethan-1-one] | 1.7 |
| COc1nc(N[C@H]2C[C@](C)(N)C2)nn2ccc(-c3ccc4ncnn4c3)c12 [Compound 190, trans-N^1-(5-([1,2,4]Triazolo[1,5-a]pyridin-6-yl)-4-methoxypyrrolo[2,1-f][1,2,4]triazin-2-yl)-3-methylcyclobutane-1,3-diamine] | 11.5 |
| COc1nc(N[C@H]2C[C@@H](OCCO)C2)nn2ccc(-c3ccc4nnn(C)c4c3)c12 [Compound 201, 2-(cis-3-((4-Methoxy-5-(1-methyl-1H-benzo[d][1,2,3]triazol-6-yl)pyrrolo[2,1-f][1,2,4]triazin-2-yl)amino)cyclobutoxy)ethan-1-ol] | 2 |

Results, then the compound that gave them:

| IC50 [nM] | SMILES |
| --- | --- |
| 3 | COc1nc(NC2CCC3(CC2)COC3)nn2ccc(-c3ccc4nc(C)n(CCO)c4c3)c12 [Compound 174, 2-(6-(2-((2-Oxaspiro[3.5]nonan-7-yl)amino)-4-methoxypyrrolo[2,1-f][1,2,4]triazin-5-yl)-2-methyl-1H-benzo[d]imidazol-1-yl)ethan-1-ol] |
| 100 | COc1nc(N[C@H]2CC[C@](C)(O)CC2)nn2ccc(-c3ccc4nncn4c3)c12 [Compound 187, trans-4-((5-([1,2,4]Triazolo[4,3-a]pyridin-6-yl)-4-methoxypyrrolo[2,1-f][1,2,4]triazin-2-yl)amino)-1-methylcyclohexan-1-ol] |
| 50.3 | COc1nc(NC2CCC3(CC2)COC3)nn2ccc(-c3ccc4nncn4c3)c12 [Compound 188, 5-([1,2,4]Triazolo[4,3-a]pyridin-6-yl)-4-methoxy-N-(2-oxaspiro[3.5]nonan-7-yl)pyrrolo[2,1-f][1,2,4]triazin-2-amine] |
| 5.3 | COc1nc(N[C@H]2C[C@@](C)(NC(C)=O)C2)nn2ccc(-c3ccc4ncnn4c3)c12 [Compound 191, N-(cis-3-((5-([1,2,4]Triazolo[1,5-a]pyridin-6-yl)-4-methoxypyrrolo[2,1-f][1,2,4]triazin-2-yl)amino)-1-methylcyclobutyl)acetamide] |
| 19.9 | COc1nc(NC2CCC(F)(F)CC2)nn2ccc(-c3ccc4ncnn4c3)c12 [Compound 193, 5-([1,2,4]Triazolo[1,5-a]pyridin-6-yl)-N-(4,4-difluorocyclohexyl)-4-methoxypyrrolo[2,1-f][1,2,4]triazin-2-amine] |
| 3.9 | COc1nc(NC2CCC3(CC2)CNC3)nn2ccc(-c3ccc4ncnn4c3)c12 [Compound 195, 5-([1,2,4]Triazolo[1,5-a]pyridin-6-yl)-4-methoxy-N-(2-azaspiro[3.5]nonan-7-yl)pyrrolo[2,1-f][1,2,4]triazin-2-amine] |
| 1.1 | COc1nc(NC2CCC3(CC2)CN(C(C)=O)C3)nn2ccc(-c3ccc4ncnn4c3)c12 [Compound 196, 1-(7-((5-([1,2,4]Triazolo[1,5-a]pyridin-6-yl)-4-methoxypyrrolo[2,1-f][1,2,4]triazin-2-yl)amino)-2-azaspiro[3.5]nonan-2-yl)ethan-1-one] |
| 29.6 | COc1nc(NC2CCC3(CC2)CN(C(=O)OC(C)(C)C)C3)nn2ccc(-c3ccc4ncnn4c3)c12 [Compound 197, tert-Butyl 7-((5-([1,2,4]triazolo[1,5-a]pyridin-6-yl)-4-methoxypyrrolo[2,1-f][1,2,4]triazin-2-yl)amino)-2-azaspiro[3.5]nonane-2-carboxylate] |
| 4.5 | COc1nc(NC2CCC3(CC2)COC3)nn2ccc(-c3ccc4ncnn4c3)c12 [Compound 198, 5-([1,2,4]Triazolo[1,5-a]pyridin-6-yl)-4-methoxy-N-(2-oxaspiro[3.5]nonan-7-yl)pyrrolo[2,1-f][1,2,4]triazin-2-amine] |
| 5.7 | COc1nc(N[C@H]2C[C@@](C)(O)C2)nn2ccc(-c3ccc4nnn(C)c4c3)c12 [Compound 199, cis-3-((4-Methoxy-5-(1-methyl-1H-benzo[d][1,2,3]triazol-6-yl)pyrrolo[2,1-f][1,2,4]triazin-2-yl)amino)-1-methylcyclobutan-1-ol] |
| 10.9 | COc1nc(N[C@H]2C[C@@](C)(N)C2)nn2ccc(-c3ccc4nnn(C)c4c3)c12 [Compound 202, cis-N^1-(4-Methoxy-5-(1-methyl-1H-benzo[d][1,2,3]triazol-6-yl)pyrrolo[2,1-f][1,2,4]triazin-2-yl)-3-methylcyclobutane-1,3-diamine] |
| 7.5 | COc1nc(N[C@H]2C[C@](C)(N)C2)nn2ccc(-c3ccc4nnn(C)c4c3)c12 [Compound 203, trans-N^1-(4-methoxy-5-(1-methyl-1H-benzo[d][1,2,3]triazol-6-yl)pyrrolo[2,1-f][1,2,4]triazin-2-yl)-3-methylcyclobutane-1,3-diamine] |
| 3.5 | COc1nc(N[C@H]2C[C@@](C)(N(C)C)C2)nn2ccc(-c3ccc4nnn(C)c4c3)c12 [Compound 204, cis-N^3-(4-methoxy-5-(1-methyl-1H-benzo[d][1,2,3]triazol-6-yl)pyrrolo[2,1-f][1,2,4]triazin-2-yl)-N^1,N^1,1-trimethylcyclobutane-1,3-diamine] |
| 4.3 | COc1nc(N[C@H]2C[C@@](C)(NC(C)=O)C2)nn2ccc(-c3ccc4nnn(C)c4c3)c12 [Compound 205, N-(cis-3-((4-Methoxy-5-(1-methyl-1H-benzo[d][1,2,3]triazol-6-yl)pyrrolo[2,1-f][1,2,4]triazin-2-yl)amino)-1-methylcyclobutyl)acetamide] |
| 0.4 | COc1nc(N[C@H]2C[C@](C)(NC(C)=O)C2)nn2ccc(-c3ccc4nnn(C)c4c3)c12 [Compound 206, N-(trans-3-((4-Methoxy-5-(1-methyl-1H-benzo[d][1,2,3]triazol-6-yl)pyrrolo[2,1-f][1,2,4]triazin-2-yl)amino)-1-methylcyclobutyl)acetamide] |
